Laboratory results reported in the supplement of paper PMC10883282.

Columns and labels:
Assay in all cases: relative viability vs DMSO control (72 h) (fraction); higher = more viable cells
A204 = tested on: A204
Procedure, shortened: (§1)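 After seeding at densities set for 80–90% confluence in 384-well plates, sarcoma cell lines waited 24 h before 2.5 µl of serially diluted compound was added. Source plates held 10 mM down to 0.0002 mM. Plates were incubated 72 h at 37 °C with 5% CO2, with 0.1% DMSO vehicle and a 5 µM positive control, and relative viability was taken from ATPLite as percent growth averaged over up to triplicate wells, with 1 set as full and 0 as none.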

G401 = tested on: G401
Procedure, shortened: as §1

HT1080 = tested on: HT1080
Procedure, shortened: as §1

KHOS-240S = tested on: KHOS-240S
Procedure, shortened: as §1

KHOS-NP = tested on: KHOS-NP
Procedure, shortened: as §1

RD-ES = tested on: RD-ES
Procedure, shortened: as §1

SK-ES-1 = tested on: SK-ES-1
Procedure, shortened: as §1

SW1353 = tested on: SW1353
Procedure, shortened: as §1

SW684 = tested on: SW684
Procedure, shortened: as §1

SW872 = tested on: SW872
Procedure, shortened: as §1

SW982 = tested on: SW982
Procedure, shortened: as §1

SYO-1 = tested on: SYO-1
Procedure, shortened: as §1

CCCS(=O)(=O)N[C@H]1C[C@@H](N(C)c2ncnc3[nH]ccc23)C1 [Abrocitinib]
Settings	relative viability
A204, 0.00017 µM	1.07
A204, 0.00051 µM	1.06
A204, 0.00152 µM	1.07
A204, 0.00457 µM	1.06
A204, 0.01372 µM	1.07
A204, 0.04115 µM	1.07
A204, 0.1235 µM	1.07
A204, 0.3704 µM	1.07
A204, 1.111 µM	1.03
A204, 3.333 µM	1.01
A204, 10 µM	0.949
G401, 0.00017 µM	1
G401, 0.00051 µM	0.981
G401, 0.00152 µM	0.994
G401, 0.00457 µM	1.04
G401, 0.01372 µM	1.01
G401, 0.04115 µM	0.981
G401, 0.1235 µM	0.984
G401, 0.3704 µM	1.01
G401, 1.111 µM	1.01
G401, 3.333 µM	0.956
G401, 10 µM	0.915
HT1080, 0.00017 µM	1.026
HT1080, 0.00051 µM	1.02
HT1080, 0.00152 µM	1.046
HT1080, 0.00457 µM	1.022
HT1080, 0.01372 µM	1.05
HT1080, 0.04115 µM	1.05
HT1080, 0.1235 µM	1.026
HT1080, 0.3704 µM	1.04
HT1080, 1.111 µM	1.021
HT1080, 3.333 µM	1.03
HT1080, 10 µM	1.05
KHOS-240S, 0.00017 µM	1.03
KHOS-240S, 0.00051 µM	1.03
KHOS-240S, 0.00152 µM	1.03
KHOS-240S, 0.00457 µM	1.04
KHOS-240S, 0.01372 µM	1.04
KHOS-240S, 0.04115 µM	1.04
KHOS-240S, 0.1235 µM	0.9912
KHOS-240S, 0.3704 µM	1.02
KHOS-240S, 1.111 µM	1.03
KHOS-240S, 3.333 µM	1.05
KHOS-240S, 10 µM	0.988
KHOS-NP, 0.00017 µM	1.05
KHOS-NP, 0.00051 µM	1.04
KHOS-NP, 0.00152 µM	1.04
KHOS-NP, 0.00457 µM	1.05
KHOS-NP, 0.01372 µM	1.05
KHOS-NP, 0.04115 µM	1.04
KHOS-NP, 0.1235 µM	1.06
KHOS-NP, 0.3704 µM	1.04
KHOS-NP, 1.111 µM	1.05
KHOS-NP, 3.333 µM	1.04
KHOS-NP, 10 µM	1.039
RD-ES, 0.00017 µM	0.988
RD-ES, 0.00051 µM	0.998
RD-ES, 0.00152 µM	0.985
RD-ES, 0.00457 µM	0.993
RD-ES, 0.01372 µM	1.02
RD-ES, 0.04115 µM	1.03
RD-ES, 0.1235 µM	1.03
RD-ES, 0.3704 µM	1.015
RD-ES, 1.111 µM	1.03
RD-ES, 3.333 µM	1.03
RD-ES, 10 µM	1.03
SK-ES-1, 0.00017 µM	1.03
SK-ES-1, 0.00051 µM	1.06
SK-ES-1, 0.00152 µM	1.04
SK-ES-1, 0.00457 µM	1.03
SK-ES-1, 0.01372 µM	1.03
SK-ES-1, 0.04115 µM	1.02
SK-ES-1, 0.1235 µM	1.03
SK-ES-1, 0.3704 µM	1.03
SK-ES-1, 1.111 µM	1.02
SK-ES-1, 3.333 µM	1.03
SK-ES-1, 10 µM	1
SW684, 0.00017 µM	1.11
SW684, 0.00051 µM	1.12
SW684, 0.00152 µM	1.12
SW684, 0.00457 µM	1.15
SW684, 0.01372 µM	1.12
SW684, 0.04115 µM	1.13
SW684, 0.1235 µM	1.14
SW684, 0.3704 µM	1.16
SW684, 1.111 µM	1.11
SW684, 3.333 µM	1.09
SW684, 10 µM	1.08
SW872, 0.00017 µM	0.993
SW872, 0.00051 µM	0.995
SW872, 0.00152 µM	0.991
SW872, 0.00457 µM	1
SW872, 0.01372 µM	1.01
SW872, 0.04115 µM	1.03
SW872, 0.1235 µM	1.02
SW872, 0.3704 µM	1.02
SW872, 1.111 µM	1.03
SW872, 3.333 µM	1.01
SW872, 10 µM	1
SW982, 0.00017 µM	1.03
SW982, 0.00051 µM	1.04
SW982, 0.00152 µM	1.04
SW982, 0.00457 µM	1.04
SW982, 0.01372 µM	1.02
SW982, 0.04115 µM	1.06
SW982, 0.1235 µM	1.07
SW982, 0.3704 µM	1.044
SW982, 1.111 µM	1.04
SW982, 3.333 µM	1.056
SW982, 10 µM	1.06
SW1353, 0.00017 µM	0.96
SW1353, 0.00051 µM	0.966
SW1353, 0.00152 µM	0.929
SW1353, 0.00457 µM	0.96
SW1353, 0.01372 µM	1
SW1353, 0.04115 µM	0.9632
SW1353, 0.1235 µM	0.977
SW1353, 0.3704 µM	0.999
SW1353, 1.111 µM	0.958
SW1353, 3.333 µM	0.991
SW1353, 10 µM	0.996
SYO-1, 0.00017 µM	0.984
SYO-1, 0.00051 µM	0.951
SYO-1, 0.00152 µM	0.956
SYO-1, 0.00457 µM	0.972
SYO-1, 0.01372 µM	0.952
SYO-1, 0.04115 µM	0.957
SYO-1, 0.1235 µM	0.974
SYO-1, 0.3704 µM	0.959
SYO-1, 1.111 µM	0.993
SYO-1, 3.333 µM	0.994
SYO-1, 10 µM	1.01

COc1cc2nccc(Oc3ccc(NC(=O)C4(C(=O)Nc5ccc(F)cc5)CC4)cc3)c2cc1OC [Cabozantinib]
Settings	relative viability
A204, 0.00017 µM	1.04
A204, 0.00051 µM	1.1
A204, 0.00152 µM	1.06
A204, 0.00457 µM	1.06
A204, 0.01372 µM	0.9735
A204, 0.04115 µM	0.785
A204, 0.1235 µM	0.428
A204, 0.3704 µM	0.378
A204, 1.111 µM	0.341
A204, 3.333 µM	0.312
A204, 10 µM	0.229
G401, 0.00017 µM	1.08
G401, 0.00051 µM	1.05
G401, 0.00152 µM	1.02
G401, 0.00457 µM	1.06
G401, 0.01372 µM	1.05
G401, 0.04115 µM	0.997
G401, 0.1235 µM	0.969
G401, 0.3704 µM	0.858
G401, 1.111 µM	0.804
G401, 3.333 µM	0.514
G401, 10 µM	0.215
HT1080, 0.00017 µM	1.06
HT1080, 0.00051 µM	1.06
HT1080, 0.00152 µM	1.07
HT1080, 0.00457 µM	1.07
HT1080, 0.01372 µM	1.05
HT1080, 0.04115 µM	1.04
HT1080, 0.1235 µM	1.06
HT1080, 0.3704 µM	1.06
HT1080, 1.111 µM	1.07
HT1080, 3.333 µM	0.962
HT1080, 10 µM	0.482
KHOS-240S, 0.00017 µM	1.11
KHOS-240S, 0.00051 µM	1.08
KHOS-240S, 0.00152 µM	1.08
KHOS-240S, 0.00457 µM	1.06
KHOS-240S, 0.01372 µM	1.06
KHOS-240S, 0.04115 µM	1.07
KHOS-240S, 0.1235 µM	1.02
KHOS-240S, 0.3704 µM	1.04
KHOS-240S, 1.111 µM	0.974
KHOS-240S, 3.333 µM	0.6869
KHOS-240S, 10 µM	0.425
KHOS-NP, 0.00017 µM	1.07
KHOS-NP, 0.00051 µM	1.09
KHOS-NP, 0.00152 µM	1.1
KHOS-NP, 0.00457 µM	1.06
KHOS-NP, 0.01372 µM	1.09
KHOS-NP, 0.04115 µM	1.07
KHOS-NP, 0.1235 µM	1.08
KHOS-NP, 0.3704 µM	1.07
KHOS-NP, 1.111 µM	1.04
KHOS-NP, 3.333 µM	0.924
KHOS-NP, 10 µM	0.586
RD-ES, 0.00017 µM	0.916
RD-ES, 0.00051 µM	0.92
RD-ES, 0.00152 µM	0.953
RD-ES, 0.00457 µM	0.95
RD-ES, 0.01372 µM	0.938
RD-ES, 0.04115 µM	0.949
RD-ES, 0.1235 µM	0.958
RD-ES, 0.3704 µM	0.895
RD-ES, 1.111 µM	0.857
RD-ES, 3.333 µM	0.616
RD-ES, 10 µM	0.252
SK-ES-1, 0.00017 µM	1.01
SK-ES-1, 0.00051 µM	1.05
SK-ES-1, 0.00152 µM	1.03
SK-ES-1, 0.00457 µM	0.986
SK-ES-1, 0.01372 µM	1.04
SK-ES-1, 0.04115 µM	0.992
SK-ES-1, 0.1235 µM	1
SK-ES-1, 0.3704 µM	0.941
SK-ES-1, 1.111 µM	0.885
SK-ES-1, 3.333 µM	0.514
SK-ES-1, 10 µM	0.128
SW684, 0.00017 µM	1.17
SW684, 0.00051 µM	1.19
SW684, 0.00152 µM	1.2
SW684, 0.00457 µM	1.2
SW684, 0.01372 µM	1.21
SW684, 0.04115 µM	1.121
SW684, 0.1235 µM	0.945
SW684, 0.3704 µM	0.848
SW684, 1.111 µM	0.852
SW684, 3.333 µM	0.652
SW684, 10 µM	0.38
SW872, 0.00017 µM	1.08
SW872, 0.00051 µM	1.1
SW872, 0.00152 µM	1.08
SW872, 0.00457 µM	1.11
SW872, 0.01372 µM	1.06
SW872, 0.04115 µM	1.05
SW872, 0.1235 µM	1.06
SW872, 0.3704 µM	1.01
SW872, 1.111 µM	0.931
SW872, 3.333 µM	0.626
SW872, 10 µM	0.4
SW982, 0.00017 µM	1.04
SW982, 0.00051 µM	1.01
SW982, 0.00152 µM	1.03
SW982, 0.00457 µM	1.035
SW982, 0.01372 µM	1.036
SW982, 0.04115 µM	1.07
SW982, 0.1235 µM	1.05
SW982, 0.3704 µM	1.03
SW982, 1.111 µM	0.993
SW982, 3.333 µM	0.598
SW982, 10 µM	0.259
SW1353, 0.00017 µM	1.05
SW1353, 0.00051 µM	1.02
SW1353, 0.00152 µM	1.04
SW1353, 0.00457 µM	0.987
SW1353, 0.01372 µM	1.01
SW1353, 0.04115 µM	1.01
SW1353, 0.1235 µM	0.904
SW1353, 0.3704 µM	0.8127
SW1353, 1.111 µM	0.783
SW1353, 3.333 µM	0.54
SW1353, 10 µM	0.317
SYO-1, 0.00017 µM	1
SYO-1, 0.00051 µM	1
SYO-1, 0.00152 µM	0.974
SYO-1, 0.00457 µM	0.91
SYO-1, 0.01372 µM	0.915
SYO-1, 0.04115 µM	0.751
SYO-1, 0.1235 µM	0.708
SYO-1, 0.3704 µM	0.627
SYO-1, 1.111 µM	0.451
SYO-1, 3.333 µM	0.322
SYO-1, 10 µM	0.129
